Data on 13 compounds can be found in US20230227427A1, “IL-17A MODULATORS” (SANOFI, priority 2010, published 2023).

The target in the test is T1, human recombinant IL-17A (Homo sapiens, UniProt Q16552).
T1 construct: purchased R&D Systems 7955-IL/CF
T1 sequence (Q16552 24-155): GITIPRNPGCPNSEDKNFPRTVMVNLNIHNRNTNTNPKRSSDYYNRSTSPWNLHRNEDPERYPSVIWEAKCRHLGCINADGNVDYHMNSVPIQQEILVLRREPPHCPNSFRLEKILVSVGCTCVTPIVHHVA
The test can be described thus: IL-17A AlphaLISA assay (block binding of IL-17A to its receptor IL-17RA). Particulars: for IC50: read-out: AlphaLISA pIC50 (converted). The procedure, abridged:
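Compounds pre-incubated 24 h at RT (30 min where flagged) with human IL-17A (7.5 nM stock) before IL-17RA/Fc (5 nM stock), 90 min. Read by AlphaLISA via anti-Fc acceptor and biotin anti-IL-17A/streptavidin donor beads, 680/615 nm. 4-parameter fit; DMSO and 6 μM reference inhibitor as controls; pIC50.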
For orientation: Alpha assays give light when donor and acceptor beads are brought close together.

The mark [1] stands for this setting: compounds pre-incubated with the IL-17A for 24 h at room temperature.
Setting [2] is: compounds pre-incubated with the IL-17A for 30 min (indicated by * in Table A).

Read-outs that look alike come from different tables or passages of the source.

As to `Cc1n[nH]cc1-c1ccc(NC(=O)[C@@H](NC(=O)c2ccnn2C)C(c2ccccc2)c2ccccc2)cc1F` [Example 65, (S)—N-(1-((3-fluoro-4-(3-methyl-1H-pyrazol-4-yl)phenyl)amino)-1-oxo-3,3-diphenylpropan-2-yl)-1-methyl-1H-pyrazole-5-carboxamide], the IC50 under setting [1] was 50.1 nM.

In the case of `CCn1nccc1C(=O)N[C@H](C(=O)Nc1cnc(-c2c(C)cnn2C)c(F)c1)[C@H]1CC[C@H](C)CC1` [Example 189, N—((S)-2-((6-(1,4-dimethyl-1H-pyrazol-5-yl)-5-fluoropyridin-3-yl)amino)-1-((1r,4S)-4-methylcyclohexyl)-2-oxoethyl)-1-ethyl-1H-pyrazole-5-carboxamide], under setting [2], the “AlphaLISA pIC50” value is 6.8*.

In the case of `Cc1c(-c2ccc(NC(=O)[C@@H](NC(=O)c3ccnn3C)[C@H]3CC[C@H](C)CC3)cc2F)ccc(=O)n1C` [Example 83, N—((S)-2-((4-(1,2-Dimethyl-6-oxo-1,6-dihydropyridin-3-yl)-3-fluorophenyl)amino)-1-((1r,4S)-4-methylcyclohexyl)-2-oxoethyl)-1-methyl-1H-pyrazole-5-carboxamide], the IC50 under setting [1] is 63.1 nM.

Regarding `Cn1nccc1C(=O)N[C@H](C(=O)Nc1ccc(-c2ccc(=O)n(C)n2)c(F)c1)C(c1ccccc1)c1ccccc1` [Example 48, (S)—N-(1-((3-fluoro-4-(1-methyl-6-oxo-1,6-dihydropyridazin-3-yl)phenyl)amino)-1-oxo-3,3-diphenylpropan-2-yl)-1-methyl-1H-pyrazole-5-carboxamide], under setting [1], the IC50 is 158 nM.

Turning to `CCn1nccc1C(=O)N[C@H](C(=O)Nc1cnc(-c2c(C)cnn2C)nc1)[C@H]1CC[C@H](C)CC1` [Example 147, N—((S)-2-((2-(1,4-dimethyl-1H-pyrazol-5-yl)pyrimidin-5-yl)amino)-1-((1r,4S)-4-methylcyclohexyl)-2-oxoethyl)-1-ethyl-1H-pyrazole-5-carboxamide], the IC50 under setting [2] is 398 nM.

For the compound `CCn1nccc1C(=O)NC(C(=O)Nc1ccc(-c2c(C)cnn2C)cn1)[C@H]1CC[C@H](C(F)(F)F)CC1` (stereo partly shown) [Example 186, N-(2-((5-(1,4-dimethyl-1H-pyrazol-5-yl)pyridin-2-yl)amino)-2-oxo-1-((1r,4r)-4-(trifluoromethyl)cyclohexyl)ethyl)-1-ethyl-1H-pyrazole-5-carboxamide], under setting [2], the IC50 was 398 nM.

As for `CCn1nccc1C(=O)N[C@H](C(=O)Nc1ccc(-c2c(Cl)cnn2C)cn1)[C@H]1CC[C@H](C)CC1` [Example 199, N—((S)-2-((5-(4-chloro-1-methyl-1H-pyrazol-5-yl)pyridin-2-yl)amino)-1-((1r,4S)-4-methylcyclohexyl)-2-oxoethyl)-1-ethyl-1H-pyrazole-5-carboxamide], under setting [2], the IC50 was 100 nM.

Turning to `CCc1nocc1C(=O)N[C@H](C(=O)Nc1ccc(-c2c(CO)cnn2C)cn1)C1CCCCCC1` [Example 202, (S)—N-(1-cycloheptyl-2-((5-(4-(hydroxymethyl)-1-methyl-1H-pyrazol-5-yl)pyridin-2-yl)amino)-2-oxoethyl)-3-ethylisoxazole-4-carboxamide], the IC50 under setting [2] was 158 nM.

With `Cn1nncc1C(=O)N[C@H](C(=O)Nc1ccc(-c2c(Cl)cnn2C)cn1)[C@H]1CC[C@H](C)CC1` [Example 200, N—((S)-2-((5-(4-chloro-1-methyl-1H-pyrazol-5-yl)pyridin-2-yl)amino)-1-((1r,4S)-4-methylcyclohexyl)-2-oxoethyl)-1-methyl-1H-1,2,3-triazole-5-carboxamide], the IC50 under setting [2] is 398 nM.

In the case of `COc1cnccc1-c1ccc(NC(=O)[C@@H](NC(=O)c2ccnn2C(F)F)C(c2ccccc2)c2ccccc2)cc1` [Example 46, (S)-1-(difluoromethyl)-N-(1-((4-(3-methoxypyridin-4-yl)phenyl)amino)-1-oxo-3,3-diphenylpropan-2-yl)-1H-pyrazole-5-carboxamide], under setting [1], the IC50 is 100 nM.

Regarding `Cc1n[nH]c(C)c1-c1ccc(NC(=O)[C@@H](NC(=O)c2ccnn2C)[C@H]2CC[C@H](C)CC2)cn1` [Example 211, N—((S)-2-((6-(3,5-dimethyl-1H-pyrazol-4-yl)pyridin-3-yl)amino)-1-((1r,4S)-4-methylcyclohexyl)-2-oxoethyl)-1-methyl-1H-pyrazole-5-carboxamide], the IC50 under setting [2] was 158 nM.

On to `Cc1nn(C)c(C)c1-c1ccc(NC(=O)[C@@H](NC(=O)c2ccnn2C)[C@H]2CC[C@H](C)CC2)nc1` [Example 217, 1-methyl-N—((S)-1-((1r,4S)-4-methylcyclohexyl)-2-oxo-2-((5-(1,3,5-trimethyl-1H-pyrazol-4-yl)pyridin-2-yl)amino)ethyl)-1H-pyrazole-5-carboxamide], for which the IC50 under setting [2] is 501 nM.

For the compound `CCn1nccc1C(=O)N[C@H](C(=O)Nc1ccc(-c2c(CO)cnn2C)cn1)C1CCCCCC1` [Example 198, (S)—N-(1-cycloheptyl-2-((5-(4-(hydroxymethyl)-1-methyl-1H-pyrazol-5-yl)pyridin-2-yl)amino)-2-oxoethyl)-1-ethyl-1H-pyrazole-5-carboxamide], the IC50 under setting [2] is 200 nM.
